Experimental data published in patent US20110160158A1, “METHODS OF TREATMENT OF BIPOLAR DISORDER” (REPLIGEN CORPORATION, priority 2008, published 2011).

How the values were obtained:
[1] = test system: patients with Bipolar I Disorder, Most Recent Episode Depressed; assay: Same six-week study: Hamilton Anxiety Scale (HAM-A); type: in vivo, human
Procedure: The YMRS is an 11 item scale designed to measure core manic symptoms (Young et al., Br. J. Psychiatry, 133:429-435). A cumulative score of 15 or greater on the YMRS was considered evidence of a treatment emergent affective switch. The HAM-A scale is a measure of global anxiety, including cognitive and somatic symptoms.
A six-week, double blind, placebo-controlled, dose-escalation study was performed to assess the safety and efficacy of uridine in bipolar I depression. Eight-four (84) patients of both sexes were enrolled at twelve sites, randomized on a 1:1 basis to receive either placebo or uridine. To decrease the probability of a false negative result, uridine or placebo were given as monotherapy, and no concurrent bipolar medications, including mood stabilizers, atypical antipsychotics, antidepressants, anticonvulsants or other psychotropic medications were allowed during the study. Patients taking such medications were tapered gradually during the 28 days prior to initiation of the trial. Patients were evaluated each week over the 6-week trial period, with an extensive intervention plan for any patient having exacerbation of bipolar or depressive symptoms. […]
The effect on anxiety in uridine-treated bipolar I depression subjects in comparison to placebo was evaluated using the mean HAM-A scores for each group.

[2] = in vivo; cited from earlier work
[3] = test system: patients with Bipolar I Disorder, Most Recent Episode Depressed; assay: Six-week double blind placebo-controlled dose-escalation study of uridine in bipolar I depression: MADRS; type: in vivo, human; settings: for True difference in mean MADRS between groups (uridine vs placebo): week 6; for Mean change of MADRS from baseline (treatment response), percent: total group; for Average improvement on MADRS over placebo: weeks 2-6
[4] = test system: patients with Bipolar I Disorder, Most Recent Episode Depressed; assay: Same six-week study: Clinical Global Impression for bipolar disorder (CGI-BP-S / CGI-BP-C); type: in vivo, human; settings: for Average CGI-C-BP (Depression) / Average CGI-C-BP (Overall): 7-point scale, 4 = no change, lower = improved
From the text: The CGI-BP scale is a modification of the clinical global impression for use in bipolar disorder as a global assessment of patient severity and change of status (Spearing et al., 1997, Psychiatry Res., 73:159-171). The CGI-BP-S rates the severity of the illness on a 7 point scale. The CGI-BP-C rates the change in the severity of disease compared to baseline. This also uses a 7 point scale, anchored by a score of 4 which correlates to no change since the initiation of treatment. Lower scores correspond to improvement, higher to worsening.
A six-week, double blind, placebo-controlled, dose-escalation study was performed to assess the safety and efficacy of uridine in bipolar I depression. Eight-four (84) patients of both sexes were enrolled at twelve sites, randomized on a 1:1 basis to receive either placebo or uridine. To decrease the probability of a false negative result, uridine or placebo were given as monotherapy, and no concurrent bipolar medications, including mood stabilizers, atypical antipsychotics, antidepressants, anticonvulsants or other psychotropic medications were allowed during the study. Patients taking such medications were tapered gradually during the 28 days prior to initiation of the trial. Patients were evaluated each week over the 6-week trial period, with an extensive intervention plan for any patient having exacerbation of bipolar or depressive symptoms. After the trial period, patients were eligible to initiate therapy for bipolar disease and a follow-up visit occurred at week ten.
Informed consent was provided by all patients.
Subjects in the uridine treatment group were given either 2 g per day (low dose) or 4 g per day (high dose) of uridine. Subjects in the placebo group were given tablets of identical size and appearance with identical dosing instructions.
A dose of 1 g orally twice daily (2 g/day) was chosen to initiate treatment, with an increase to 2 g orally twice daily (4 g/day) in the absence of clinical improvement. On Day 1, all patients received a single dose of either placebo or uridine (2 g). This loading dose was done in order to compare pharmacokinetics of uridine at study start and end. Beginning on Day 2, patients received either placebo and uridine at a dose of 2 g/day administered as 1 g orally twice daily (2 tablets twice daily) for one week. At the Day 8 visit, the dose was increased to 4 g/day administered as 2 g orally twice daily (4 tablets twice daily) if there had been no serious untoward drug-related adverse events, and if the subject had less than a 25% improvement on the MADRS from baseline (Day 1). Patients that remained on 2 g/day were increased to 4 g/day at a subsequent visit if the improvement from baseline on the MADRS was less than 25%. Likewise, subjects having adverse events at the high dose were decreased to the low dose at the discretion of the investigator. On Day 43, all patients received a single dose of either placebo or uridine administered as 2 g orally twice daily (4 tablets twice daily), regardless of dose regimen. This was the patients' last dose of study drug.
The CGI-BP is a clinical impression scale that has been adapted for bipolar disorder and is comprised of an overall score, a depression score and a mania score. The CGI in this study used the severity of disease (CGI-BP-S) at study day 1 as the anchor point and the change from baseline (CGI-BP-C) in subsequent evaluations. Each assessment was intended to measure the change from the study start. The severity of disease (baseline) was similar between groups (Uridine=4.48; Placebo=4.68, n.s.), which are similar in magnitude to published efficacy trials in bipolar I depression (Brown et al., 2006, J. Clin. Psychiatry, 67:1025-33; Calabrese et al., 1999, J. Clin. Psychiatry, 60:79-88; Thase et al., 2006, J. Clin. Psychiatry, 26:600-609; Tohen et al., 2003, Arch. Gen. Psychiatry, 60:1079-88; Goldberg et al., 2007, Am. J. Psychiatry, 164:1348-55; Nierenberg et al., 2006, Am. J. Psychiatry, 163:210-216). […]

[5] = Wk 10, follow-up a month after treatment concluded

O=c1ccn([C@@H]2O[C@H](CO)[C@@H](O)[C@H]2O)c(=O)[nH]1 [uridine]
Mean HAM-A score vs placebo, MERM over the treatment period [1]: no difference between groups
Volume distribution [2]: around 0.634 liters/kg
MADRS change from baseline, as percentage of the baseline score, Δ (%) ([3]; Baseline (Study Day 1)): 0%
Average MADRS score ([3]; Baseline (Study Day 1), all patients): 30.28
Difference in change from baseline of average MADRS vs placebo (Δ) ([3]; Day 43, subjects with <2 episodes of mania or hypomania): −8.2
Difference in change from baseline of average MADRS vs placebo (Δ) ([3]; Day 43, subjects with <10 episodes of depression): −1.7
Difference in change from baseline of average MADRS vs placebo (Δ) ([3]; Day 43, subjects with ≧10 episodes of depression, p=0.18): 5.8
MADRS change from baseline, as percentage of the baseline score, Δ (%) ([3]; Wk 1): −25.8%
Average MADRS score ([3]; Wk 1, oral 2-4 g/day, all patients): 22.46
MADRS change from baseline, as percentage of the baseline score, Δ (%) ([3]; Wk 2): −37.9%
Average MADRS score ([3]; Wk 2, oral 2-4 g/day, all patients): 18.81
MADRS change from baseline, as percentage of the baseline score, Δ (%) ([3]; Wk 3): −52.5%
Average MADRS score ([3]; Wk 3, oral 2-4 g/day, all patients): 15.90
MADRS change from baseline, as percentage of the baseline score, Δ (%) ([3]; Wk 4): −54.0%
Average MADRS score ([3]; Wk 4, oral 2-4 g/day, all patients): 13.93
MADRS change from baseline, as percentage of the baseline score, Δ (%) ([3]; Wk 5): −50.6%
Average MADRS score ([3]; Wk 5, oral 2-4 g/day, all patients): 14.97
MADRS change from baseline, as percentage of the baseline score, Δ (%) ([3]; Wk 6): −58.1%
Average MADRS score ([3]; Wk 6 (end of treatment), oral 2-4 g/day, all patients): 12.69
Average MADRS score [3, 5]: 15.91
MADRS change from baseline, as percentage of the baseline score, Δ (%) [3, 5]: −47.5%
Effect size from MERM change in mean MADRS score compared to placebo ([3]; baseline adjusted as a covariate, all patients): 0.43
Rebound in the MADRS assessment after end of dosing ([3]; final assessment 4 weeks after study drug administration was completed): no rebound
Difference of the mean MADRS scores in comparison to placebo (primary efficacy outcome) ([3]; mixed effects repeat measures, day 1 to day 43, total scores p=0.011, percent change from baseline p=0.014): statistically significant
Improvement in MADRS score (Uridine vs Placebo) ([3]; patients with <5 manic episodes, Day 1): −0.64
Improvement in MADRS score (Uridine vs Placebo) ([3]; patients with <5 manic episodes, Day 8): −3.57
Improvement in MADRS score (Uridine vs Placebo) ([3]; patients with <5 manic episodes, Day 15): −1.39
Improvement in MADRS score (Uridine vs Placebo) ([3]; patients with <5 manic episodes, Day 22): −1.20
Improvement in MADRS score (Uridine vs Placebo) ([3]; patients with <5 manic episodes, Day 29): −1.76
Improvement in MADRS score (Uridine vs Placebo) ([3]; patients with <5 manic episodes, Day 36): −4.62
Improvement in MADRS score (Uridine vs Placebo) ([3]; patients with <5 manic episodes, Day 43): −6.56
Response (MADRS vs placebo) ([3]; patients with a history of fewer than 2 episodes of mania): No positive response
Improvement in MADRS score (Uridine vs Placebo) ([3]; patients with ≧5 manic episodes, Day 1): 0.37
Improvement in MADRS score (Uridine vs Placebo) ([3]; patients with ≧5 manic episodes, Day 8): 1.63
Improvement in MADRS score (Uridine vs Placebo) ([3]; patients with ≧5 manic episodes, Day 15): 4.41
Improvement in MADRS score (Uridine vs Placebo) ([3]; patients with ≧5 manic episodes, Day 22): 6.33
Improvement in MADRS score (Uridine vs Placebo) ([3]; patients with ≧5 manic episodes, Day 29): 7.07
Improvement in MADRS score (Uridine vs Placebo) ([3]; patients with ≧5 manic episodes, Day 36): 3.20
Improvement in MADRS score (Uridine vs Placebo) ([3]; patients with ≧5 manic episodes, Day 43 (week 6)): 5.88
Treatment response, MADRS change from baseline ([3]; study end (week 6), subset with 15 or more episodes of depression): 58%
MADRS improvement from baseline ([3]; study end, subset with <15 historic episodes of depression): 58%
Difference in mean MADRS scores between treatment and placebo groups ([3]; subset with <15 historic episodes of depression (49 subjects)): no appreciable difference
Average true difference in mean MADRS (corrected for baseline) vs placebo ([3]; week 3 to week 6, all patients): 3.2 points
True difference in mean MADRS vs placebo (Δ) ([3]; week 6 (Day 43), subjects with ≧2 episodes of mania or hypomania, p=0.11): 5.7
True difference in mean MADRS between groups (uridine vs placebo) ([3]; subjects with 15 or more episodes of mania and/or hypomania): 9.46
True difference in mean MADRS between groups (uridine vs placebo) ([3]; subjects with history of 15 or more episodes of depression): 6.35
True difference in mean MADRS between groups (uridine vs placebo) ([3]; total score (all subjects)): 3.04
Mean change of MADRS from baseline ([3]; week 6 end of study, all patients): 17.6 points
Mean change of MADRS from baseline (treatment response), percent ([3]; week 6 end of study): 58%
Mean change of MADRS from baseline (treatment response), percent ([3]; week 6 end of study, listed as RG2417): 58.1%
Average improvement on MADRS over placebo ([3]; all patients in the study, p=0.01): 3.0 points
Average improvement on MADRS over placebo ([3]; patients with more than 5 episodes of depression (n=50), p<0.001): 5.5 points
Change in CGI vs placebo, MERM analysis of the treatment period ([4]; CGI-BP-C overall, p=0.044): significant difference
Average CGI-C-BP (Depression) ([4]; Wk 1): 3.05
Average CGI-C-BP (Overall) ([4]; Wk 1): 3.19
Average CGI-C-BP (Depression) ([4]; Wk 2): 2.72
Average CGI-C-BP (Overall) ([4]; Wk 2): 2.92
Average CGI-C-BP (Depression) ([4]; Wk 3): 2.31
Average CGI-C-BP (Overall) ([4]; Wk 3): 2.45
Average CGI-C-BP (Depression) ([4]; Wk 4): 2.10
Average CGI-C-BP (Overall) ([4]; Wk 4): 2.33
Average CGI-C-BP (Depression) ([4]; Wk 5): 2.14
Average CGI-C-BP (Overall) ([4]; Wk 5): 2.31
Average CGI-C-BP (Depression) ([4]; Wk 6): 2.03
Average CGI-C-BP (Overall) ([4]; Wk 6): 2.21
